Data as given in US11008313B2, “Substituted 1-methyl-1,2,3,4-tetrahydroisoquinoline molecules as PCSK9 allosteric binders” (Merck Sharp & Dohme Corp., priority 2016, dated 2021).

Legend:
[1] = molecular target: T1, PCSK9 (Homo sapiens, UniProt Q8NBP7); assay: Fluorescence polarization competition binding assay (probe: compound of Example 57); details: 2 μM PCSK9, 50 nM compound of Example 57 as probe, overnight incubation; read-out: FP IC
Summary of the method: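 Competition fluorescence-polarization binding: 2 μM PCSK9 with 50 nM fluorescent probe in 20 mM HEPES pH 7.5, 150 mM NaCl, 1 mM CaCl2, 0.005% P-20, incubated with test compound overnight in the dark. Anisotropy read; % inhibition relative to DMSO wells and probe-without-PCSK9 wells.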

[2] = molecular target: T1, PCSK9; assay: Differential scanning calorimetry (DSC) assay, direct binding / thermal stabilization of PCSK9; details: Tm(with compound)−Tm(no compound); 2 μM PCSK9, 300 μM test compound
Summary of the method: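 Thermal stabilization of 2 μM PCSK9 with or without 300 μM compound in 25 mM HEPES pH 7.5, 150 mM NaCl, 1 mM CaCl2, 3.75% DMSO. Sample heated 20–80 °C at 200 °C/hr against buffer reference. Protein Tm derived from each thermogram.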

T1 sequence (Q8NBP7 153-692): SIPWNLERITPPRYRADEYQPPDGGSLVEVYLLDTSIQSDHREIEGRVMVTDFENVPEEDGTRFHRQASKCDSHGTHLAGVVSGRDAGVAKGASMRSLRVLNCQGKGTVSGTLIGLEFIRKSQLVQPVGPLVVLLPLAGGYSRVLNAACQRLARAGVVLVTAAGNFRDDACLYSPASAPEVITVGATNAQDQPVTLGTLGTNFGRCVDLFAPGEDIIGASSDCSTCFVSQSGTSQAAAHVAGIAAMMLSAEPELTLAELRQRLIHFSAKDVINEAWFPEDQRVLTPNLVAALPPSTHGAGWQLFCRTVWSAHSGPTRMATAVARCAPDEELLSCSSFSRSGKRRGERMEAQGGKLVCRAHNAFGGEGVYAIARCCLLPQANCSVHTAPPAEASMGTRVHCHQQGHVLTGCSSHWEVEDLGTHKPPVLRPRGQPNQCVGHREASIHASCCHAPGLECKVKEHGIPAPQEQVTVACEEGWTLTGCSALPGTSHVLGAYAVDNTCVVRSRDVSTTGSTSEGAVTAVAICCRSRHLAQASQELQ

Structure (SMILES)	IC50 [1] [µM]	ΔTm at 300 µM [2] [°C]	DSC ΔTm [2] [°C]
COC(=O)c1ccc(Oc2cc3c(cc2OCc2ncccn2)CCN[C@]3(C)CC(=O)Nc2nccs2)cc1F [Example 71, methyl (R)-2-fluoro-4-((1-methyl-1-(2-oxo-2-(thiazol-2-ylamino)ethyl)-6-(pyrimidin-2-ylmethoxy)-1,2,3,4-tetrahydroisoquinolin-7-yl)oxy)benzoate]	0.645	6.36	
COC(=O)c1ccc(Oc2cc3c(cc2OCC2CCCCO2)CCN[C@]3(C)CC(=O)Nc2nccs2)cc1F (stereo partly drawn) [Example 72, methyl 2-fluoro-4-(((1R)-1-methyl-1-(2-oxo-2-(thiazol-2-ylamino)ethyl)-6-((tetrahydro-2H-pyran-2-yl)methoxy)-1,2,3,4-tetrahydroisoquinolin-7-yl)oxy)benzoate]	0.68	6.15	
Cn1nccc1NC(=O)c1ccc(Oc2cc3c(cc2OCC2CCCCO2)CCN[C@]3(C)CC(=O)Nc2nccs2)cc1F (stereo partly drawn) [Example 73, 2-fluoro-4-(((1R)-1-methyl-1-(2-oxo-2-(thiazol-2-ylamino)ethyl)-6-((tetrahydro-2H-pyran-2-yl)methoxy)-1,2,3,4-tetrahydroisoquinolin-7-yl)oxy)-N-(1-methyl-1H-pyrazol-5-yl)benzamide]	0.632	6.66	
C[C@]1(CC(=O)Nc2nccs2)NCCc2cc(OCC3CCCCO3)c(Oc3ccc(C(=O)Nc4n[nH]c5ncccc45)c(F)c3)cc21 (stereo partly drawn) [Example 74, 2-fluoro-4-(((1R)-1-methyl-1-(2-oxo-2-(thiazol-2-ylamino)ethyl)-6-((tetrahydro-2H-pyran-2-yl)methoxy)-1,2,3,4-tetrahydroisoquinolin-7-yl)oxy)-N-(1H-pyrazolo[3,4-b]pyridin-3-yl)benzamide]	0.79	7.08	
CC(C)(C)c1cc(NC(=O)c2ccc(Oc3cc4c(cc3OCC3CCCCO3)CCN[C@]4(C)CC(=O)Nc3nccs3)cc2F)[nH]n1 (stereo partly drawn) [Example 76, N-(3-(tert-butyl)-1H-pyrazol-5-yl)-2-fluoro-4-(((1R)-1-methyl-1-(2-oxo-2-(thiazol-2-ylamino)ethyl)-6-((tetrahydro-2H-pyran-2-yl)methoxy)-1,2,3,4-tetrahydroisoquinolin-7-yl)oxy)benzamide]	0.535	7.92	
C[C@]1(CC(=O)Nc2nccs2)NCCc2cc(OCC3CCCCO3)c(Oc3ccc(C(=O)Nc4n[nH]c5ncccc45)c(F)c3)cc21 (stereo partly drawn) [Example 78, 2-fluoro-4-(((1R)-1-methyl-1-(2-oxo-2-(thiazol-2-ylamino)ethyl)-6-((tetrahydro-2H-pyran-2-yl)methoxy)-1,2,3,4-tetrahydroisoquinolin-7-yl)oxy)-N-(1H-pyrazolo[3,4-b]pyridin-3-yl)benzamide]	0.604		6.67
C[C@]1(CC(=O)Nc2nccs2)NCCc2cc(OCC3CCCCO3)c(Oc3cccc(F)c3)cc21 (stereo partly drawn) [Example 79, 2-((1R)-7-(3-fluorophenoxy)-1-methyl-6-((tetrahydro-2H-pyran-2-yl)methoxy)-1,2,3,4-tetrahydroisoquinolin-1-yl)-N-(thiazol-2-yl)acetamide]	0.823	6.76	
C[C@]1(CC(=O)Nc2nccs2)NCCc2cc(OCC3CCCO3)c(Oc3cccc(F)c3)cc21 (stereo partly drawn) [Example 82, 2-((1R)-7-(3-fluorophenoxy)-1-methyl-6-((tetrahydrofuran-2-yl)methoxy)-1,2,3,4-tetrahydroisoquinolin-1-yl)-N-(thiazol-2-yl)acetamide]	0.721	7.47	
C[C@]1(CC(=O)Nc2nccs2)NCCc2cc(OCc3ccccn3)c(Oc3cccc(F)c3)cc21 [Example 83, (R)-2-(7-(3-fluorophenoxy)-1-methyl-6-(pyridin-2-ylmethoxy)-1,2,3,4-tetrahydroisoquinolin-1-yl)-N-(thiazol-2-yl)acetamide]	0.852	5.2	
C[C@]1(CC(=O)Nc2nccs2)NCCc2cc(OCc3ncccc3F)c(Oc3cccc(F)c3)cc21 [Example 84, (R)-2-(7-(3-fluorophenoxy)-6-((3-fluoropyridin-2-yl)methoxy)-1-methyl-1,2,3,4-tetrahydroisoquinolin-1-yl)-N-(thiazol-2-yl)acetamide]	0.943	6.32	
C[C@]1(CC(=O)Nc2cccnn2)NCCc2cc(OCC3CCCCO3)c(Oc3ccc(Br)c(F)c3)cc21 (stereo partly drawn) [Example 88, 2-((1R)-7-(4-bromo-3-fluorophenoxy)-1-methyl-6-((tetrahydro-2H-pyran-2-yl)methoxy)-1,2,3,4-tetrahydroisoquinolin-1-yl)-N-(pyridazin-3-yl)acetamide]	0.0016	5.51	
COC(=O)c1cc(-c2cc3c(cc2OC)CCN[C@]3(C)CC(=O)Nc2nccs2)ccc1F [Example 109, methyl (R)-2-fluoro-5-(6-methoxy-1-methyl-1-(2-oxo-2-(thiazol-2-ylamino)ethyl)-1,2,3,4-tetrahydroisoquinolin-7-yl)benzoate]	0.664	6.02	
CC1(CC(=O)Nc2nccs2)NCCc2cc(OCC3CCCCO3)c(-c3ccc(F)c(C(=O)O)c3)cc21 (stereo not drawn) [Example 110, 2-fluoro-5-(1-methyl-1-(2-oxo-2-(thiazol-2-ylamino)ethyl)-6-((tetrahydro-2H-pyran-2-yl)methoxy)-1,2,3,4-tetrahydroisoquinolin-7-yl)benzoic acid]	0.00098	6.7	
COC(=O)c1cc(-c2cc3c(cc2OCC2CCCCO2)CCNC3(C)CC(=O)Nc2nccs2)ccc1F (stereo not drawn) [Example 111, methyl 2-fluoro-5-(1-methyl-1-(2-oxo-2-(thiazol-2-ylamino)ethyl)-6-((tetrahydro-2H-pyran-2-yl)methoxy)-1,2,3,4-tetrahydroisoquinolin-7-yl)benzoate]	0.00155	6.27	

Continued, values first:

IC50 [1] [µM]	ΔTm at 300 µM [2] [°C]	DSC ΔTm [2] [°C]	Structure (SMILES)
0.17	9.62		COc1cccc(NC(=O)C[C@@]2(C)NCCc3cc(OCC4CCCCO4)c(Oc4ccc(-c5ccc(C(=O)O)cc5)c(F)c4)cc32)c1 (stereo partly drawn) [Example 85]
0.00117	6.18		COc1cccc(NC(=O)C[C@@]2(C)NCCc3cc(OCC4CCCCO4)c(Oc4ccc(Br)c(F)c4)cc32)c1 (stereo partly drawn) [Example 86, 2-((1R)-7-(4-bromo-3-fluorophenoxy)-1-methyl-6-((tetrahydro-2H-pyran-2-yl)methoxy)-1,2,3,4-tetrahydroisoquinolin-1-yl)-N-(3-methoxyphenyl)acetamide]
0.0014	6.57		COc1cccc(NC(=O)C[C@@]2(C)NCCc3cc(OCC4CCCCO4)c(Oc4ccc(Br)c(F)c4)cc32)n1 (stereo partly drawn) [Example 87, 2-((1R)-7-(4-bromo-3-fluorophenoxy)-1-methyl-6-((tetrahydro-2H-pyran-2-yl)methoxy)-1,2,3,4-tetrahydroisoquinolin-1-yl)-N-(6-methoxypyridin-2-yl)acetamide]
0.00276	5.98		COC(=O)c1ccc(-c2ccc(Oc3cc4c(cc3OCC3CCCCO3)CCN[C@]4(C)CC(=O)Nc3cccc(OC)c3)cc2F)cc1 (stereo partly drawn) [Example 89, methyl 2′-fluoro-4′-(((1R)-1-(2-((3-methoxyphenyl)amino)-2-oxoethyl)-1-methyl-6-((tetrahydro-2H-pyran-2-yl)methoxy)-1,2,3,4-tetrahydroisoquinolin-7-yl)oxy)-[1,1′-biphenyl]-4-carboxylate]
0.109	8.59		COc1cccc(NC(=O)C[C@@]2(C)NCCc3cc(OCC4CCCCO4)c(Oc4ccc(-c5ccc(C(=O)O)cc5)c(F)c4)cc32)n1 (stereo partly drawn) [Example 90, 2′-fluoro-4′-(((1R)-1-(2-((6-methoxypyridin-2-yl)amino)-2-oxoethyl)-1-methyl-6-((tetrahydro-2H-pyran-2-yl)methoxy)-1,2,3,4-tetrahydroisoquinolin-7-yl)oxy)-[1,1′-biphenyl]-4-carboxylic acid]
0.86	7.19		C[C@]1(CC(=O)Nc2cccnn2)NCCc2cc(OCC3CCCCO3)c(Oc3ccc(-c4ccc(C(=O)O)cc4)c(F)c3)cc21 (stereo partly drawn) [Example 91, 2′-fluoro-4′-(((1R)-1-methyl-1-(2-oxo-2-(pyridazin-3-ylamino)ethyl)-6-((tetrahydro-2H-pyran-2-yl)methoxy)-1,2,3,4-tetrahydroisoquinolin-7-yl)oxy)-[1,1′-biphenyl]-4-carboxylic acid]
0.958	7.28		C[C@]1(CC(=O)Nc2cccc3[nH]ccc23)NCCc2cc(OCC3CCCCO3)c(Oc3ccc(-c4ccc(C(=O)O)cc4)c(F)c3)cc21 (stereo partly drawn) [Example 92, 4′-(((1R)-1-(2-((1H-indol-4-yl)amino)-2-oxoethyl)-1-methyl-6-((tetrahydro-2H-pyran-2-yl)methoxy)-1,2,3,4-tetrahydroisoquinolin-7-yl)oxy)-2′-fluoro-[1,1′-biphenyl]-4-carboxylic acid]
